The values below come from article PMC6199744, “Development of Chemical Proteomics for the Folateome and Analysis of the Kinetoplastid Folateome” (ACS Infectious Diseases, 2018).

SMILES strings stand for the structures. Where two headings read alike, the source gives them in different places.

The target of one assay is PTR-1 (Trypanosoma brucei brucei, UniProt O76290). Nature of the assay: Individual bead pull down with competing free ligand. As to conditions: competing free ligand 100 μM; bead = immobilized compound of the row; T. brucei lysate; read-out: % Inhibition of protein binding to bead, PTR-1, T. brucei. From the text: (§1) Antifolate compounds were immobilized onto NHS-activated sepharose beads/reverse sepharose beads through amide coupling via either an amino or carboxyl group (see Figure 3). The reaction was monitored by observing the disappearance of test compound by LCMS, after which the unreacted coupling sites were capped with NHS-acetate or aminoethanol.
(§2) Folate metabolizing enzymes are not highly abundant proteins,[19],[20] potentially making their identification by MS difficult. Beads will not only pull down the low abundant high affinity binders but also attract highly abundant, low affinity binders or so-called nonspecific binders. Sometimes, the nonspecific high abundant proteins can mask true binders. The target identification approach used in this study overcomes this issue by performing competition studies. Various concentrations of the free unmodified inhibitor (test compound) were preincubated with the lysate, prior to addition of the beads derivatized with immobilized compounds. Following washing of the bound proteins from the beads and tryptic digest, the peptides were labeled using the TMTs and then pooled. Differences in peptide abundance were analyzed by fragmentation of the isotope-coded isobaric tags in the MS/MS spectra (Figure 5).[9],[11],[12],[21] While the competition experiments with test compound confirm specific binding, it is also possible that some proteins will have a stronger binding interaction with the derivatized beads than the competing test compound, due to subtle differences in the interactions between the immobilized compound and the test compound with the target protein.

For assay [1], the target named is DHFR-TS (Trypanosoma brucei brucei, UniProt Q27783). Described as above. The settings on record: competing free ligand 100 μM; bead = immobilized compound of the row; T. brucei lysate; read-out: % Inhibition of protein binding to bead, DHFR-TS, T. brucei.
Source text: as §1, §2

Assay [2] deals with DHFR-TS (Leishmania major, UniProt P07382). The experiment in a line: biochemical. The settings on record: competing free ligand 100 μM; bead = immobilized compound of the row; L. major lysate; read-out: % Inhibition of protein binding to bead, DHFR-TS, L. major.
In the next assay the test system is TB11.03.0290. Nature of the assay: Multitargeted bead mixture competition. Type of assay: binding, T. brucei. The settings on record: multitargeted bead mixture; free ligand 100 μM; T. brucei lysate; TB11.03.0290.
The target in another assay is TbTS. As to conditions: recombinant protein assay; ref 6 (SI); read-out: Ki, recombinant TbTS; cited from earlier work.
Assay [3] deals with IRON/ASCORBATE OXIDOREDUCTASE FAMILY PROTEIN, PUTA (Tb427.02.6180). The experiment in a line: Multitargeted bead mixture competition. Type of assay: binding, T. brucei. The settings on record: multitargeted bead mixture; free ligand 100 μM; T. brucei lysate; Tb427.02.6180.
Assay [4] concerns the target T1, MTHFS, the 5-formyl-THF-cyclo-ligase (Homo sapiens, UniProt P49914).
T1 sequence (P49914 1-203): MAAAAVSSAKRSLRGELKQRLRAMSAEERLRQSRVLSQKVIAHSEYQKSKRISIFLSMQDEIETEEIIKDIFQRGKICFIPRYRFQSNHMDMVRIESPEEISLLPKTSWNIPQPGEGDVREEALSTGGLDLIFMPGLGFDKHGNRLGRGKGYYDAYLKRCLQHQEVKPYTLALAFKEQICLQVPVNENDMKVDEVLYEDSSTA
The experiment in a line: Multitargeted bead mixture competition, HeLa cell extract. Type of assay: binding. The settings on record: bead mixture; HeLa cell extract.

For assay [5], the target named is DIHYDROFOLATE REDUCTASE-T[…] (TB427.07.5480) (Trypanosoma brucei brucei, UniProt Q27783). The experiment in a line: Multitargeted bead mixture competition. Type of assay: binding. As to conditions: multitargeted bead mixture; free ligand 100 μM; T. brucei lysate; TB427.07.5480 DHFR-TS.
For assay [6], the system named is HYPOTHETICAL PROTEIN, CONSERVED (Tb427.10.6100). The experiment in a line: Multitargeted bead mixture competition. Type of assay: binding. The settings on record: free ligand 100 μM, T. brucei lysate.
For assay [7], the system named is BRANCHED-CHAIN AMINO ACID AMINOTRANSFERASE, PUTATI (TB427.02.4590). Nature of the assay: Multitargeted bead mixture competition. Type of assay: binding. The settings on record: free ligand 100 μM, T. brucei lysate.
In assay [8] the test system is PHOSPHATIDYLINOSITOL-4-PHOSPHATE 5-KINASE, PUTATIV (TB427.10.3890). Nature of the assay: Multitargeted bead mixture competition. Type of assay: binding. The settings on record: free ligand 100 μM, T. brucei lysate.
Assay [9] deals with PROTEIN KINASE, PUTATIVE (Tb427.03.1570). Nature of the assay: Multitargeted bead mixture competition. The settings on record: free ligand 100 μM, T. brucei lysate. Type of assay: binding.
The test system of assay [10] is PEPTIDYL-PROLYL CIS-TRANS ISOMERASE (CYCLOPHILIN- (TB427TMP.211.1350)). The experiment in a line: Multitargeted bead mixture competition. Type of assay: binding. The settings on record: free ligand 100 μM, T. brucei lysate.
The subject of assay [11] is HYPOTHETICAL PROTEIN, CONSERVED (TB427.03.2670). The experiment in a line: Multitargeted bead mixture competition. As to conditions: free ligand 100 μM, T. brucei lysate. Type of assay: binding.
A further assay has as its system TB427.04.1870. Nature of the assay: Multitargeted bead mixture competition. Type of assay: binding. The settings on record: free ligand 100 μM, T. brucei lysate.
The next assay deals with T2, PTR1 (Leishmania major, UniProt Q01782).
T2 sequence (Q01782 1-288): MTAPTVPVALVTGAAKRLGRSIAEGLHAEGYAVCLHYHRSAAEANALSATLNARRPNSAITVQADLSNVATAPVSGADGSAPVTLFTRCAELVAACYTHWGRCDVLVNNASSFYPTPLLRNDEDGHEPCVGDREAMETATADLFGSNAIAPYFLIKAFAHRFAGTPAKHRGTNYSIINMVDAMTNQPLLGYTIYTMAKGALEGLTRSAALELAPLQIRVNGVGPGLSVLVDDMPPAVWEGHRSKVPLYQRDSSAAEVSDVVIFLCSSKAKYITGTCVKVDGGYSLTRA
The experiment in a line: biochemical. As to conditions: competing free ligand 100 μM; bead = immobilized compound of the row; L. major lysate; read-out: % Inhibition of protein binding to bead, PTR-1, L. major.

In assay [12] the test system is ACETYLTRANSFERASE, PUTATIVE (Tb427.08.3310). Nature of the assay: Multitargeted bead mixture competition. Type of assay: binding. As to conditions: free ligand 100 μM, T. brucei lysate.
The next assay deals with TB927.8.6460. The experiment in a line: Multitargeted bead mixture competition. Format: binding, T. brucei. The settings on record: multitargeted bead mixture; free ligand 100 μM; T. brucei lysate; TB927.8.6460.
In assay [13] the target is GLYCERALDEHYDE 3-PHOSPHATE DEHYDROGENASE, GLYCOSOM (TB427.06.4300) (Trypanosoma brucei brucei, UniProt P22512). Nature of the assay: Multitargeted bead mixture competition. Format: binding, T. brucei. As to conditions: multitargeted bead mixture; free ligand 100 μM; T. brucei lysate; TB427.06.4300 GAPDH.
For assay [14], the system named is CHOLINE KINASE (TB427TMP.18.0017). Nature of the assay: Multitargeted bead mixture competition. The settings on record: multitargeted bead mixture; free ligand 100 μM; T. brucei lysate; TB427TMP.18.0017 CHOLINE KINASE. Type of assay: binding, T. brucei.
For assay [15], the system named is SUCCINYL-COA SYNTHETASE ALPHA SUBUNIT, PUTATIVE (Tb427.03.2230). The experiment in a line: Multitargeted bead mixture competition. Type of assay: binding. As to conditions: free ligand 100 μM, T. brucei lysate.
Assay [16] has as its system HYPOTHETICAL PROTEIN, CONSERVED (TB427.05.3680). The experiment in a line: Multitargeted bead mixture competition. The settings on record: free ligand 100 μM, T. brucei lysate. Type of assay: binding.
Assay [17] addresses PTERIDINE REDUCTASE (TB927.8.2210) (Trypanosoma brucei brucei, UniProt O76290). Nature of the assay: Multitargeted bead mixture competition. Type of assay: binding, T. brucei. As to conditions: multitargeted bead mixture; free ligand 100 μM; T. brucei lysate; TB927.8.2210 PTERIDINE REDUCTASE
For a further assay, the system named is TB927.8.6760. The experiment in a line: Multitargeted bead mixture competition. Format: binding. As to conditions: free ligand 100 μM, T. brucei lysate.
A further assay relates to TB927.7.1340. The experiment in a line: Multitargeted bead mixture competition. Format: binding. The settings on record: free ligand 100 μM, T. brucei lysate.
A further assay deals with TB09.211.1690. Nature of the assay: Multitargeted bead mixture competition. Type of assay: binding. The settings on record: free ligand 100 μM, T. brucei lysate.
Assay [18] relates to NGG1 INTERACTING FACTOR 3-LIKE (Tb427tmp.02.5000). Format: binding. The settings on record: multitargeted bead mixture; free ligand 100 μM; T. brucei lysate; Tb427tmp.02.5000.
Another assay deals with leishmania DHCH enzyme. More on the design: method as in ref 10 (SI). As to conditions: ref 10 (SI); cited from earlier work.
Another assay concerns the target human enzyme (DHCH). The arrangement: method as in ref 8 (SI). The settings on record: ref 8 (SI); cited from earlier work.
The test system of assay [19] is T. brucei lysate proteins. Format: binding, Trypanosoma brucei. As to conditions: X016405, bead mixture, free compound 100.0uM, Trypanosoma brucei.

Sequence of DHFR-TS (Trypanosoma brucei brucei, UniProt Q27783) (Q27783 whole entry): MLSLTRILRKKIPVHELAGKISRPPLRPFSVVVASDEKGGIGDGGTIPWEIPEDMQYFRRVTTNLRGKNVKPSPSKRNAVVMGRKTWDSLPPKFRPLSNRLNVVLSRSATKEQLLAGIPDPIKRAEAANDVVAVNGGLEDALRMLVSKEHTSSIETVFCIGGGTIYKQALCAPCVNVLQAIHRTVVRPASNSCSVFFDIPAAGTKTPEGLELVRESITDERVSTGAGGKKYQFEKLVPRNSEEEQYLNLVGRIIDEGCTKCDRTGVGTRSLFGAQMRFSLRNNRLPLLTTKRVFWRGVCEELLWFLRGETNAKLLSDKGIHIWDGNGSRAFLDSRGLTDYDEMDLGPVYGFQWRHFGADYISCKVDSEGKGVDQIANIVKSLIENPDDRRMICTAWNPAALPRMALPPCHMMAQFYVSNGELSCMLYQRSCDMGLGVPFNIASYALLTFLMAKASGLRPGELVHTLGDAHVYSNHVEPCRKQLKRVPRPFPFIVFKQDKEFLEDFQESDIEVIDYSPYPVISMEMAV
Sequence of PTR-1 (O76290 entry or part of it): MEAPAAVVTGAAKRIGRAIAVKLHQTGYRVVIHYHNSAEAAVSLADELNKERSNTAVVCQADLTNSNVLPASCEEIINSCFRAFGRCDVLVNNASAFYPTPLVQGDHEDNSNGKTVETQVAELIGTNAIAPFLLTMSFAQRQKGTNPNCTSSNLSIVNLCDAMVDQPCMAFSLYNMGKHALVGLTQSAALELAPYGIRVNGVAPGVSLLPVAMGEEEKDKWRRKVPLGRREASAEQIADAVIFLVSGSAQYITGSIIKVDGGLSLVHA
Sequence of UniProt Q27783 (Q27783 whole entry): as the sequence (Q27783 whole entry) above
Sequence of PTERIDINE REDUCTASE (TB927.8.2210) (O76290 entry or part of it): as the sequence (O76290 entry or part of it) above
Sequence of UniProt P22512 (P22512 whole entry): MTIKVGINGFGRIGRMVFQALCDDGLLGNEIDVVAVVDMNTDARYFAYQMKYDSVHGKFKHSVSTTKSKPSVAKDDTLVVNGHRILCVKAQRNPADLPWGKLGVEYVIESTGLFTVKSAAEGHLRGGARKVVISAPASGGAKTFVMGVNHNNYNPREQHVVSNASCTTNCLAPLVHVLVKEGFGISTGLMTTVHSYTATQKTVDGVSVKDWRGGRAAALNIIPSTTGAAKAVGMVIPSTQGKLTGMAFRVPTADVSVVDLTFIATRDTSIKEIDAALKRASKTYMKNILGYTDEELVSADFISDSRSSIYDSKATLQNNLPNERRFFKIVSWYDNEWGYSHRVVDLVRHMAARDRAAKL
Sequence of DHFR-TS (Leishmania major, UniProt P07382) (P07382 whole entry): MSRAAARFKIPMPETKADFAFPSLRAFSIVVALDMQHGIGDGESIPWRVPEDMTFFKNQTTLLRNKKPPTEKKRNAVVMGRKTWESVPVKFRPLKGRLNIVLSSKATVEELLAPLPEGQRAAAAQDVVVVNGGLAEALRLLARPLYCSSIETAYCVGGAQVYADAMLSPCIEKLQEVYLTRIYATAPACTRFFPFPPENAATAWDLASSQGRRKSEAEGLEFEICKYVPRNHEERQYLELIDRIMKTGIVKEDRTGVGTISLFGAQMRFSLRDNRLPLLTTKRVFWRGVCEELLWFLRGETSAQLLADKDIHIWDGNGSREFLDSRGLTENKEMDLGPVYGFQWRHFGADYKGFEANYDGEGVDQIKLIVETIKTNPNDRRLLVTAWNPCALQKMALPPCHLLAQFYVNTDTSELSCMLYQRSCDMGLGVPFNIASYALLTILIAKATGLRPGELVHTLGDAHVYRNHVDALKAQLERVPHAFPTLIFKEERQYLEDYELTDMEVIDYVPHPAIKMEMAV

Take `Nc1nc(=O)c2nc(CNc3ccc(C(=O)N[C@@H](CCC(=O)O)C(=O)O)cc3)cnc2[nH]1` [Folic acid]: the inhibition (commonly how much of the control response was suppressed) at 100 µM was found to be 92% on PTR-1, 77% on DHFR-TS [1] and 85% on DHFR-TS [2].

As for `Cc1ccc2nc(N)[nH]c(=O)c2c1Sc1ccncc1` [NTX, nolatrexed], the “percentage of competition from bead binding” value (shortened to “percentage of competition”) in the assay on TB11.03.0290 is on record as 77%; in assay [3], 52%; in assay [5], -5%; in assay [6], 33%; in assay [7], 9%; in assay [8] it was 16%. Moreover, the “percentage of competition” value in assay [9] is given as 11%; in [10], 1%; in assay [11] it was 11%; with TB427.04.1870, 52%; in assay [12], 29%; in the assay with TB927.8.6460 it was 68%. Moreover, the “percentage of competition” value turned out to be 18% in assay [13]; 34% in [14]; 27% in assay [15]; 38% in assay [16]; 16% in assay [17]; 8% in the assay with TB927.8.6760. Besides, the “percentage of competition” value in the assay on TB927.7.1340 is given as 11%; in the assay on TB09.211.1690, -7%; in assay [18] it was 87%. Moreover, the inhibitory constant (Ki) (commonly the dissociation constant of the complex between target and ligand, obtained from inhibition or displacement) on TbTS was 39.4 nM. Besides, in assay [4], the “binding to MTHFS” value is recorded as “bound MTHFS”. For the same molecule, the inhibition at 100 µM at PTR1 and on DHFR-TS [2] was below 50% in each case.

As for `Nc1nc2c(c(=O)[nH]1)N1C(=O)N(c3ccc(C(=O)NC(CCC(=O)O)C(=O)O)cc3)CC1CN2` (stereo not drawn) [compound 4], the inhibitory constant (Ki) is 105 ± 2 nM on leishmania DHCH enzyme and 18 ± 5 nM at human enzyme (DHCH).

For `Nc1nc(O)c2c(CCc3ccccc3)c[nH]c2n1` [compound 5], the “percentage of competition” value is given as 61% in the assay on TB11.03.0290; 80% in assay [3]; 5% in assay [5]; 77% in assay [6]; -22% in [7]; 49% in assay [8]. For the same molecule, the “percentage of competition” value in [9] is listed as 60%; in [10] it was -24%; in [11], 54%; with TB427.04.1870, 50%; in [12], 61%; with TB927.8.6460, 65%. In addition, the “percentage of competition” value is given as 15% in assay [13]; 49% in assay [14]; 51% in assay [15]; 70% in assay [16]; 93% in [17]; -71% in the assay with TB927.8.6760. Besides, the results for the “percentage of competition” value (with TB927.7.1340; with TB09.211.1690; in assay [18]) were -41%, -34% and 6%, respectively. Moreover, the “abundance relative to vehicle” value in assay [19] (protein TB427.02.1850) is given as 0.89; in [19] (protein TB427.06.4760) it was 1.04; in assay [19] (protein TB427.07.3620), 1.03; in assay [19] (protein TB427.08.1880), 0.84.

In the case of `NCCCCCOc1ccc(Cc2cnc(N)nc2N)cc1` [compound 10], the inhibition at 100 µM on PTR-1 is 77%; on DHFR-TS [1], 84%.

On to `NCCCCCOc1cccc(Cc2cnc(N)nc2N)c1` [compound 11], for which the results for the inhibition at 100 µM on PTR-1 and at DHFR-TS [1] were 56% and 87%, respectively.

With `NCCOCCOc1cccc(Cc2cnc(N)nc2N)c1` [compound 12], the inhibition at 100 µM at PTR-1 was determined as 51%; at DHFR-TS [1] it was 79%.

With `NCCOCCOc1ccc(Cc2cnc(N)nc2N)cc1` [compound 13], the inhibition at 100 µM is 51% at PTR-1 and 75% at DHFR-TS [1].
